Source: the supplement of paper PMC10307832

Key:
[1] = compound: c1ccc2c(CCNc3ccc(Nc4ccncc4)cc3)c[nH]c2c1 [Serdemetan] + COc1cc2c(Oc3ccc(NC(=O)C4(C(=O)Nc5ccc(F)cc5)CC4)cc3F)ccnc2cc1OCCCN1CCOCC1 [Foretinib] (partner 0.25 µM); experiment: relative viability (nuclei count vs DMSO), 5 days (fraction); higher = more cells survive
Summary of the method: (§1)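 Lung cancer cell lines in 1536-well plates were dosed by pin tool the day after seeding, either with one drug alone or with a fixed anchor-drug dose plus five library-drug doses (not always all listed) in √10 steps. After 5 days, cells were fixed and their nuclei stained in one step (final 0.05% Triton X-100, 1% formaldehyde, 1 ug/ml Hoechst), then counted on 4× images. Relative viability is the nuclei count in treated wells divided by that in vehicle wells. Values are medians of duplicate plates.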

[2] = compound: C1CC(C2=C(C1)C3=C(N2)C=CC(=C3)Cl)C(=O)N [Selisistat] + CC1(C)CCC(c2ccc(Cl)cc2)=C(CN2CCN(c3ccc(C(=O)NS(=O)(=O)c4ccc(N[C@H](CCN5CCOCC5)CSc5ccccc5)c(S(=O)(=O)C(F)(F)F)c4)cc3)CC2)C1 [Navitoclax] (partner 0.5 µM); experiment: as above
Summary of the method: as §1

| Cell Line | relative viability ([1]; first compound 0.04 µM) | relative viability ([1]; first compound 0.1265 µM) | relative viability ([1]; first compound 0.4 µM) | relative viability ([1]; first compound 1.265 µM) | relative viability ([1]; first compound 4 µM) | relative viability ([2]; first compound 0.4 µM) | relative viability ([2]; first compound 1.265 µM) | relative viability ([2]; first compound 4 µM) | relative viability ([2]; first compound 12.65 µM) | relative viability ([2]; first compound 40 µM) |
| --- | --- | --- | --- | --- | --- | --- | --- | --- | --- | --- |
| COR-L23 | 0.989 | 1.01 | 1.07 | 0.847 | 0.843 | 0.994 | 1.09 | 1.07 | 0.939 | 0.928 |
| HCC-78 | 0.531 | 0.524 | 0.463 | 0.422 | 0.426 | 0.961 | 0.836 | 0.765 | 0.705 | 0.714 |
| NCI-H1299 | 1.05 | 1.07 | 1.02 | 0.92 | 0.755 | 1.1 | 1.08 | 1.01 | 1.05 | 1.04 |
| NCI-H727 | 0.831 | 0.737 | 1.32 | 0.634 | 0.437 | 0.501 | 0.445 | – | – | 0.38 |
| NCI-H2087 | 1.01 | 0.92 | 0.858 | 0.447 | 0.355 | 1.13 | 0.99 | 1.02 | 0.926 | 0.779 |
| BEN | 0.631 | 0.682 | 0.794 | – | 0.609 | 0.0717 | 0.0697 | 0.0619 | 0.0731 | 0.0771 |
| LCLC-103H | 0.697 | 0.81 | 0.647 | 0.556 | 0.569 | – | – | – | – | – |
| EKVX | 1 | 0.82 | 0.424 | – | 0.858 | 0.905 | 0.918 | 0.745 | 0.874 | 0.945 |
| LXF-289 | 1.02 | 1.01 | 0.951 | 0.62 | 0.793 | 0.95 | 0.966 | 0.895 | 0.901 | 0.92 |
| ABC-1 | 0.855 | 1.08 | 0.766 | 0.604 | 0.418 | – | – | – | – | – |
| NCI-H650 | 0.986 | 1.01 | 1.08 | 0.936 | 0.777 | – | – | – | – | – |
| NCI-H1650 | 1 | 1.21 | 0.989 | 1.14 | 0.658 | 1.16 | 1.41 | 1.14 | 1.31 | 1.12 |
| NCI-H2085 | 1 | 0.899 | 1 | 0.936 | 0.533 | 1.16 | 1.15 | 1.12 | 1.15 | 1.21 |
| NCI-H1793 | 0.663 | 0.716 | 0.446 | 0.363 | 0.245 | 0.446 | 0.326 | – | 0.472 | 0.545 |
| LC-2-ad | 0.883 | 0.943 | 0.831 | 0.748 | 0.86 | 0.514 | 0.475 | 0.507 | 0.485 | 0.561 |
| COR-L 105 | 0.979 | 0.866 | 0.9 | 0.839 | 0.772 | 0.635 | 0.763 | 0.671 | 0.815 | 0.823 |
| NCI-H1355 | 0.963 | 0.955 | 0.798 | 0.907 | 0.66 | 1.01 | 0.887 | – | 1.03 | 1.03 |
| H3255 | 1.02 | 0.845 | 0.833 | 0.727 | 0.708 | 0.512 | 0.643 | 0.293 | 0.438 | 0.511 |
| NCI-H1993 | 0.888 | 0.813 | 0.692 | 0.76 | 0.672 | 0.969 | 0.891 | – | 1.03 | 0.986 |
| NCI-H1734 | 0.692 | 0.335 | 0.223 | 0.126 | 0.204 | 0.961 | 0.764 | 0.822 | 0.858 | 0.873 |
| HOP-62 | 1.04 | 1.08 | 1.1 | 0.796 | 0.693 | 1.07 | 0.905 | 1.02 | 0.934 | 1.16 |
| LOU-NH91 | 0.928 | 0.927 | 0.63 | 0.952 | 0.873 | 0.695 | 0.637 | 0.58 | 0.664 | 0.707 |
| ChaGo-K-1 | 0.9 | 0.703 | 0.566 | 0.335 | 0.296 | 0.959 | 1.1 | – | 0.881 | 0.901 |
| NCI-H2228 | 0.755 | 0.518 | 0.784 | 0.303 | 0.258 | 1.15 | 0.894 | 0.759 | 0.939 | 0.747 |
| PC-14 | 0.862 | 0.939 | 0.376 | 0.83 | 1.1 | 0.963 | 1.04 | 1.03 | 1.04 | 1.07 |
| NCI-H661 | 1 | 1.01 | 1.02 | 0.924 | 0.796 | – | – | – | – | – |
| NCI-H1563 | 0.82 | 0.897 | 0.745 | 0.69 | 0.64 | – | – | – | – | – |
| NCI-H1623 | 0.901 | 0.917 | 0.698 | 0.756 | 0.703 | – | – | – | – | – |
| SW 900 | 0.79 | 0.552 | 0.928 | 0.687 | 0.821 | – | – | – | – | – |
| NCI-H358 | 0.641 | 0.773 | 0.732 | 0.549 | 0.477 | – | – | – | – | – |
